Data: patent US8680159B2, “Bradykinin 1 receptor modulating compounds” (Gruenenthal GmbH, priority 2010, dated 2014)

Each compound was assayed against T1, human B1R receptor (CHO K1 cells stably transfected with the human B1R gene) (Homo sapiens, UniProt P46663) (assay: Functional study on the bradykinin receptor 1 (B1R), Ca2+ fluorescence (Fluo-4) FLIPR/Novostar assay, hB1R cells). Details: CHO-K1, read-out: % inhibition (human B1R) at 10 μM.
T1 construct: expressed in transfected cells; host or cells: CHO K1 cells (Chinese hamster ovary), stably transfected
T1 sequence (P46663 1-353): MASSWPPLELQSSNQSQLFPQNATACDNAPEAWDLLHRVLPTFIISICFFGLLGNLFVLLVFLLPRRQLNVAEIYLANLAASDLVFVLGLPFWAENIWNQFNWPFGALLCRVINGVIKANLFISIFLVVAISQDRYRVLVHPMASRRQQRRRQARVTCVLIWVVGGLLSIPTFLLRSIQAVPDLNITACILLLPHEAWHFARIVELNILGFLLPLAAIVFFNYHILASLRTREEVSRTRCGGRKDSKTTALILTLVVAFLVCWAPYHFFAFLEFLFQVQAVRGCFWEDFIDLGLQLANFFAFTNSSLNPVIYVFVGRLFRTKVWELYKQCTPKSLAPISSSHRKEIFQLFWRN
Format: cell-based
How it was run: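 Test compounds (10 μM) were added first and the Ca2+ rise was scored as % activation against Lys-Des-Arg9-bradykinin (≥50 nM, human) or Des-Arg9-bradykinin (≥1 μM, rat). After 6-20 min, the matching agonist was given at its EC80, and % inhibition relative to maximal achievable inhibition was calculated.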
CC(C)N(C(=O)c1cccc(F)c1Cl)[C@@H]1CCc2ccc(C(=O)N(C)C3CCN(c4ccncc4)CC3)cc21 [Example H-202, (3R)-3-[(2-Chloro-3-fluoro-benzoyl)-isopropyl-amino]-N-methyl-N-(1-pyridin-4-yl-piperidin-4-yl)-2,3-dihydro-1H-indene-5-carboxylic acid amide] showed an inhibition at 10 µM of 100%.
For CCN(C(=O)c1cccc(F)c1Cl)[C@@H]1CCc2ccc(C(=O)N(C)C3CCN(c4ccncc4)CC3)cc21 [Example H-203, (3R)-3-[(2-Chloro-3-fluoro-benzoyl)-ethyl-amino]-N-methyl-N-(1-pyridin-4-yl-piperidin-4-yl)-2,3-dihydro-1H-indene-5-carboxylic acid amide], the inhibition at 10 µM was 100%.
With CC(C)N(C(=O)c1ccc(F)cc1Cl)[C@@H]1CCc2ccc(C(=O)N(C)C3CCN(c4ccncc4)CC3)cc21 [Example H-204, (3R)-3-[(2-Chloro-4-fluoro-benzoyl)-isopropyl-amino]-N-methyl-N-(1-pyridin-4-yl-piperidin-4-yl)-2,3-dihydro-1H-indene-5-carboxylic acid amide] the inhibition at 10 µM was 100%.
CN(C(=O)c1ccc2c(c1)[C@H](N(C)C(=O)c1cccc(F)c1Cl)CC2)C1CCN(c2ccncc2)CC1 [Example H-205, (3R)-3-[(2-Chloro-3-fluoro-benzoyl)-methyl-amino]-N-methyl-N-(1-pyridin-4-yl-piperidin-4-yl)-2,3-dihydro-1H-indene-5-carboxylic acid amide] was tested, and the inhibition at 10 µM was 100%.
For CC(C)N(C(=O)c1ccc(F)cc1Cl)[C@@H]1CCc2cc(F)c(C(=O)N(C)C3CCN(c4ccncc4)CC3)cc21 [Example H-206, (3R)-3-[(2-Chloro-4-fluoro-benzoyl)-isopropyl-amino]-6-fluoro-N-methyl-N-(1-pyridin-4-yl-piperidin-4-yl)-2,3-dihydro-1H-indene-5-carboxylic acid amide], the inhibition at 10 µM was 94%.
Work on Cc1cc(N2CCC(N(C)C(=O)c3ccc4c(c3)[C@H](N(C(=O)c3cccnc3C(F)(F)F)C(C)C)CC4)CC2)nc(C)n1 [Example H-207] yielded an inhibition at 10 µM of 44%.
For CC(C)N(C(=O)c1cccnc1C(F)(F)F)[C@@H]1CCc2ccc(C(=O)N(C)C3CCN(c4ccncc4)CC3)cc21 [Example H-208, N-Isopropyl-N-[(1R)-6-[methyl-(1-pyridin-4-yl-piperidin-4-yl)-carbamoyl]-2,3-dihydro-1H-inden-1-yl]-2-(trifluoromethyl)-pyridine-3-carboxylic acid amide], the inhibition at 10 µM was 45%.
Work on Cc1cc(N2CCC(N(C)C(=O)c3cc4c(cc3F)CC[C@H]4N(C(=O)c3cccnc3C(F)(F)F)C(C)C)CC2)nc(C)n1 [Example H-209, N-[(1R)-6-[[1-(2,6-Dimethyl-pyrimidin-4-yl)-piperidin-4-yl]-metyl-carbamoyl]-5-fluoro-2,3-dihydro-1H-inden-1-yl]-N-isopropyl-2-(trifluoromethyl)-pyridine-3-carboxylic acid amide] yielded an inhibition at 10 µM of 10%.
Cc1cc(N2CCC(N(C)C(=O)c3ccc4c(c3)[C@H](N(C)C(=O)c3cc(F)ccc3Cl)CC4)CC2)nc(C)n1 [Example H-210, (3R)-3-[(2-Chloro-5-fluoro-benzoyl)-methyl-amino]-N-[1-(2,6 dimethyl-pyrimidin-4-yl)-piperidin-4-yl]-N-methyl-2,3-dihydro-1H-indene-5-carboxylic acid amide] showed an inhibition at 10 µM of 99%.
In the case of CCN(C(=O)c1cc(F)ccc1Cl)[C@@H]1CCc2ccc(C(=O)N(C)C3CCN(c4cc(C)nc(C)n4)CC3)cc21 [Example H-211, (3R)-3-[(2-Chloro-5-fluoro-benzoyl)-ethyl-amino]-N-[1-(2,6-dimethyl-pyrimidin-4-yl)-piperidin-4-yl]-N-meihyl-2,3-dihydro-1H-indene-5-carboxylic acid amide], the inhibition at 10 µM is reported as 99%.
With Cc1cc(N2CCC(N(C)C(=O)c3ccc4c(c3)[C@H](N(C(=O)c3cc(F)ccc3Cl)C(C)C)CC4)CC2)nc(C)n1 [Example H-212, (3R)-3-[(2-Chloro-5-fluoro-benzoyl)-isopropyl-amino]-N-[1-(2,6-dimethyl-pyrimidin-4-yl)-piperidin-4-yl]-N-methyl-2,3-dihydro-1H-indene-5-carboxylic acid amide] the inhibition at 10 µM was 82%.
With Cc1cc(N2CCC(N(C)C(=O)c3cc4c(cc3F)CC[C@H]4NC(=O)c3ccccc3Cl)CC2)nc(C)n1 [Example H-213, (3R)-3-[(2-Chloro-benzoyl)amino]-N-[1-(2,6-dimethyl-pyrimidin-4-yl)-piperidin-4-yl]-6-fluoro-N-methyl-2,3-dihydro-1H-indene-5-carboxylic acid amide] the inhibition at 10 µM was 100%.
For CNc1nccc(N2CCC(N(C)C(=O)c3ccc4c(c3)[C@H](NC(=O)c3ccccc3Cl)CC4)CC2)n1 [Example H-214, (3R)-3-[(2-Chloro-benzoyl)amino]-N-methyl-N-[1-(2-methylamino-pyrimidin-4-yl)-piperidin-4-yl]-2,3-dihydro-1H-indene-5-carboxylic acid amide], the inhibition at 10 µM was 100%.
Compound Cc1cc(N2CCC(CCNC(=O)c3ccc4c(c3)[C@H](NC(=O)c3ccccc3Cl)CC4)CC2)nc(C)n1 [Example H-215, (3R)-3-[(2-Chloro-benzoyl)amino]-N-[2-[1-(2,6-dimethyl-pyrimidin-4-yl)-piperidin-4-yl]-ethyl]-2,3-dihydro-1H-indene-5-carboxylic acid amide] has an inhibition at 10 µM of 95%.
With CCN(C(=O)c1ccc2c(c1)[C@H](NC(=O)c1ccccc1Cl)CC2)C1CCN(c2cc(C)nc(C)n2)CC1 [Example H-216, (3R)-3-[(2-Chloro-benzoyl)amino]-N-[1-(2,6-dimethyl-pyrimidin-4-yl)-piperidin-4-yl]-N-ethyl-2,3-dihydro-1H-indene-5-carboxylic acid amide] the inhibition at 10 µM was 98%.
In the case of CN(C(=O)c1ccc2c(c1)[C@H](NC(=O)c1ccccc1Cl)CC2)C1CCN(c2cc[nH]c(=O)c2)CC1 [Example H-219, (3R)-3-[(2-Chloro-benzoyl)amino]-N-methyl-N-[1-(2-oxo-1H-pyridin-4-yl)-piperidin-4-yl]-2,3-dihydro-1H-indene-5-carboxylic acid amide], the inhibition at 10 µM is reported as 79%.
CCN(C(=O)c1c(F)cccc1Cl)[C@@H]1CCc2ccc(C(=O)N(C)C3CCN(c4ccncc4)CC3)cc21 [Example H-220] showed an inhibition at 10 µM of 99%.
CCN(C(=O)c1cc(F)ccc1Cl)[C@@H]1CCc2ccc(C(=O)N(C)C3CCN(c4ccncc4)CC3)cc21 [Example H-221, (3R)-3-[(2-Chloro-5-fluoro-benzoyl)-ethyl-amino]-N-methyl-N-(1-pyridin-4-yl-pipendin-4-yl)-2,3-dihydro-1H-indene-5-carboxylic acid amide] was tested, and the inhibition at 10 µM was 99%.
Cc1cc(N2CCC(N(C)C(=O)c3ccc4c(c3)[C@H](NC(=O)CC(C)C(C)C)CC4)CC2)ccn1 (stereo partly drawn) [Example H-222, (3R)-3-(3,4-Dimethyl-pentanoylamino)-N-methyl-N-[1-(2-methyl-pyridin-4-yl)-piperidin-4-yl]-2,3-dihydro-1H-indene-5-carboxylic acid amide] gave an inhibition at 10 µM of 99%.
Work on Cc1cc(N2CCC(N(C)C(=O)c3ccc4c(c3)[C@H](NC(=O)CC(C)C(C)C)CC4)CC2)nc(C)n1 (stereo partly drawn) [Example H-223, (3R)-3-(3,4-Dimethyl-pentanoylamino)-N-[1-(2,6-dimethyl-pyrimidin-4-yl)-piperidin-4-y]-N-methyl-2,3-dihydro-1H-indene-5-carboxylic acid amide] yielded an inhibition at 10 µM of 96%.
For COc1cc(C(=O)N[C@@H]2CCc3ccc(C(=O)N(C)C4CCN(c5cc(C)nc(C)n5)CC4)cc32)on1 [Example H-224, N-[(1R)-6-[[1-(2,6-Dimethyl-pyrimidin-4-yl)-piperidin-4-yl]-methyl-carbamoyl]-2,3-dihydro-1H-inden-1-yl]-3-methoxy-isoxazole-5-carboxylic acid amide], the inhibition at 10 µM was 98%.
COc1cc(C(=O)N[C@@H]2CCc3ccc(C(=O)N(C)C4CCN(c5ccnc(C)c5)CC4)cc32)on1 [Example H-225, 3-Methoxy-N-[(1R)-6-[methyl-[1-(2-methyl-pyridin-4-yl)-piperidin-4-yl]-carbamoyl]-2,3-dihydro-1H-inden-1-yl]-isoxazole-5-carboxylic acid amide] was tested, and the inhibition at 10 µM was 100%.
Cc1cc(N2CCC(N(C)C(=O)c3ccc4c(c3)[C@H](NC(=O)C3CCCC3)CC4)CC2)nc(C)n1 [Example H-226, (3R)-3-(Cyclopentanecarbonylamino)-N-[1-(2,6-dimethyl-pyrimidin-4-yl)-piperidin-4-yl]-N-methyl-2,3-dihydro-1H-indene-5-carboxylic acid amide] showed an inhibition at 10 µM of 99%.
Compound Cc1cc(N2CCC(N(C)C(=O)c3ccc4c(c3)[C@H](NC(=O)C3CCCC3)CC4)CC2)ccn1 [Example H-227, (3R)-3-(Cyclopentanecarbonylamino)-N-methyl-N-[1-(2-methyl-pyridin-4-yl)-piperidin-4-yl]-2,3-dihydro-1H-indene-5-carboxylic acid amide] has an inhibition at 10 µM of 100%.
CN(C)c1nccc(N2CCC(N(C)C(=O)c3ccc4c(c3)[C@H](NC(=O)C3CCCC3)CC4)CC2)n1 [Example H-228, (3R)-3-(Cyclopentanecarbonylamino)-N-[1-(2-dimethylamino-pyrimidin-4-yl)-piperidin-4-yl]-N-methyl-2,3-dihydro-1H-indene-5-carboxylic acid amide] gave an inhibition at 10 µM of 96%.
